# Patent US9724352B2, “Pyrrolo[2,1-F[1,2,4]triazine compounds, preparation methods and applications thereof” (Shanghai Institute of Materia Medica, Chinese Academy of …, priority 2012, dated 2017)
# Columns and labels:
# PI3Kα = PI3Kα (Homo sapiens (Human), UniProt P42336); assay: Inhibition on PI3K kinase activity (Kinase-Glo Plus luminescent assay); type: biochemical; conditions: 2 μM ATP, 1 hour at room temperature
# Description: The activity of purified kinase was detected with Kinase-Glo® Plus kinase luminescent assay by measuring the amount of the remaining […] in the solution after the kinase reaction was completed. […] After reaction was performed for 1 hour at room temperature, 10 μL of Kinase Glo-Plus mixture was added and incubated for 1 hour to quench the reaction.
# [1] = test system: human rhabdomyosarcoma Rh30 cells; assay: Proliferation of Rh30 cells (sulforhodamine B); type: cell-based; conditions: Homo sapiens, Rh30, 72 h; read-out: IC50 against proliferation of Rh30 cells
# Description: Rh30 cells were seeded in a 96-well plate at 3000 cells/well. After the cells adhered, tested compounds at concentration of 10, 3, 1, 0.3, or 0.1 μM were added, and incubated for 72 h. The culture media were discarded and cells were fixed with trichloroacetic acid. After washed with distilled water for five times and dried, sulfonylrhodamine B was added. After washed with 1% glacial acetic acid for five times and dried, trihydroxymethylaminomethane buffer was added. OD value was measured by using a microplate reader at a wavelength of 560 nm.
# B-BT474 = assay: Proliferation of human cancer cell panel; type: cell-based; conditions: read-out: inhibitory activity on proliferation
# Excerpt: (§1) I-30 and I-33 were selected to test their activity on the proliferation of human cancer cells originated from different tissue types.
# B-MCF-7 = assay: Proliferation of human cancer cell panel; type: cell-based; conditions: read-out: inhibitory activity on proliferation
# Excerpt: as §1
# LG-NCI-H23 = assay: Proliferation of human cancer cell panel; type: cell-based; conditions: read-out: inhibitory activity on proliferation
# Excerpt: as §1
# LG-NCI-H460 = assay: Proliferation of human cancer cell panel; type: cell-based; conditions: read-out: inhibitory activity on proliferation
# Excerpt: as §1
# O-SKOV-3 = assay: Proliferation of human cancer cell panel; type: cell-based; conditions: read-out: inhibitory activity on proliferation
# Excerpt: as §1
# P-PC-3 = assay: Proliferation of human cancer cell panel; type: cell-based; conditions: read-out: inhibitory activity on proliferation
# Excerpt: as §1
# [2] = test system: colon cancer cells C-HCT-116; assay: Proliferation of human cancer cell panel; type: cell-based; conditions: read-out: inhibitory activity on proliferation
# Excerpt: as §1
# [3] = test system: colorectal cancer cells C-LOVO; assay: Proliferation of human cancer cell panel; type: cell-based; conditions: read-out: inhibitory activity on proliferation
# Excerpt: as §1
# [4] = test system: endometrial cancer cells E-RL95-2; assay: Proliferation of human cancer cell panel; type: cell-based; conditions: read-out: inhibitory activity on proliferation
# Excerpt: as §1
# [5] = test system: gastric cancer cells G-MKN-45; assay: Proliferation of human cancer cell panel; type: cell-based; conditions: read-out: inhibitory activity on proliferation
# Excerpt: as §1
# [6] = test system: hepatoma cells L-BEL-7402; assay: Proliferation of human cancer cell panel; type: cell-based; conditions: read-out: inhibitory activity on proliferation
# Excerpt: as §1
# [7] = test system: rhabdomyosarcoma cells S-RH30; assay: Proliferation of human cancer cell panel; type: cell-based; conditions: read-out: inhibitory activity on proliferation
# Excerpt: as §1
# [8] = test system: human neuroglioma U87-MG xenograft; assay: Growth of U87-MG xenograft subcutaneously transplanted in nude mouse; type: in vivo; conditions: 50 mg/kg p.o. once a day
# Description: Well-developed tumors in nude mice were cut into 1.5 mm3 fragments and transplanted s.c. into the right flank of nude mice under sterile conditions. The diameters of subcutaneously transplanted tumours in nude mice were measured with a vernier calipe. […] Control groups were given the same amount of blank solvent, and treatment groups received tested compounds (p.o.). Compounds were administrated once a day for three weeks. Throughout the experiment, the sizes of the tumours were measured twice per week and meanwile the body weights of mice were weighed. The tumour volume (TV) was calculated as follows: TV=½×a×b2, wherein a and b represent the length and width, respectively. The individual relative tumour volume (RTV) was calculated as follows: RTV=Vt/V0, where V0 is the volume at the beginning of the treatment and Vt is the volume measured every time. Evaluation index of antitumor activity was relative tumor proliferation rate T/C (%), the calculation formula of which was as follows: T/C (%)=(TRTV/CRTV)×100%, TRTV:RTV of treatment group; CRTV:RTV of negative control group.
# Sequence of PI3Kα (P42336 whole entry): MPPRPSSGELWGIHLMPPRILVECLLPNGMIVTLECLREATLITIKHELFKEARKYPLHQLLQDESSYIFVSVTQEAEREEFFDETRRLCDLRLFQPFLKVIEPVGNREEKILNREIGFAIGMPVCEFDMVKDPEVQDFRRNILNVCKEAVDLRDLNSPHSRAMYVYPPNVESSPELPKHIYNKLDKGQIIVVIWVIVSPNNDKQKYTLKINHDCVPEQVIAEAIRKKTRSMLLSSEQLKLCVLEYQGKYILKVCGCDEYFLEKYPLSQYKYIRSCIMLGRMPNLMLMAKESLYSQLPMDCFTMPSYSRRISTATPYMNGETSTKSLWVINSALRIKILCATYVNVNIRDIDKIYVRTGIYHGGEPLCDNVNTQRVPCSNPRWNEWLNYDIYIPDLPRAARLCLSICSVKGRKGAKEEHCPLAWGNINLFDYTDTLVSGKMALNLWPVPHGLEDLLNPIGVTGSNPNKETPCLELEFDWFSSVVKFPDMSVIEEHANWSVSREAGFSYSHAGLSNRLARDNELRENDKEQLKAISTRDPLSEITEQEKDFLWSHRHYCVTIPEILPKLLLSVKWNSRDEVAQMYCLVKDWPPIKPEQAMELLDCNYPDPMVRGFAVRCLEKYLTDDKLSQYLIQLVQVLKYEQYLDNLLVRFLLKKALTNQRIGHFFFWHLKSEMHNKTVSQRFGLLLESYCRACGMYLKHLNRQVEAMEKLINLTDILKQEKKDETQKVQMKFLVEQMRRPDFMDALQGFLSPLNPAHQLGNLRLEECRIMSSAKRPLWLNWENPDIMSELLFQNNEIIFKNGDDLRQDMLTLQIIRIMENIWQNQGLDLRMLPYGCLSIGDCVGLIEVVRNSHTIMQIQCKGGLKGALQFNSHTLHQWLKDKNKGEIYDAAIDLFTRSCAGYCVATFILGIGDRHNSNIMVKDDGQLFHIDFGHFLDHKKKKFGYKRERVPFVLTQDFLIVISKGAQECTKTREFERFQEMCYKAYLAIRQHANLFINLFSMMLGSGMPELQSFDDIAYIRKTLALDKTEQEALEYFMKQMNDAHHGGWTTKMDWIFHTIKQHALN
# Sequence of PI3Kα (P27986 whole entry partner): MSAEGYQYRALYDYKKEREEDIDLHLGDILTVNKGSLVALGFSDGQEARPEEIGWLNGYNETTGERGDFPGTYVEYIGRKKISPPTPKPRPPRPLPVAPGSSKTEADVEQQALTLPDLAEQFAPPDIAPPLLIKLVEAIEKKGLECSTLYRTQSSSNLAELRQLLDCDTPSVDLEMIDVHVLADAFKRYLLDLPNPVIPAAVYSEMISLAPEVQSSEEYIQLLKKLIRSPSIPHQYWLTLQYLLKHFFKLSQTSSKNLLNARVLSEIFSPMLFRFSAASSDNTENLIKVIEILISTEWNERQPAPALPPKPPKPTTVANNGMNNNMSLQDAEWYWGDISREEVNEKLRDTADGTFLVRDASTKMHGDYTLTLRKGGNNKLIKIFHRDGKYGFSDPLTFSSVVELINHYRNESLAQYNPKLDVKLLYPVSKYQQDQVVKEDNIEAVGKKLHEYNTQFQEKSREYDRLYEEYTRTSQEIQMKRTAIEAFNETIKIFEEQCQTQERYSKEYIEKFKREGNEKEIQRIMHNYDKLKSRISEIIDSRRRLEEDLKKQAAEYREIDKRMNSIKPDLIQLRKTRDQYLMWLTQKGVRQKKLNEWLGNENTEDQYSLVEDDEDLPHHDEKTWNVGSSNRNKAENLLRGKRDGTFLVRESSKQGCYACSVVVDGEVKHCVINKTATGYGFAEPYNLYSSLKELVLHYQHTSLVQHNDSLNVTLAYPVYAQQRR
SMILES,IC50 (B-BT474),IC50 (B-MCF-7),IC50 (LG-NCI-H23),IC50 (LG-NCI-H460),IC50 (O-SKOV-3),IC50 (P-PC-3),IC50 [2],IC50 [3],IC50 [4],IC50 [5],IC50 [6],IC50 [7],further results
"CCNC(=O)Nc1cc(C(F)(F)F)c(-c2nc(N3CCOCC3)c3cc(CN4CCN(S(C)(=O)=O)CC4)cn3n2)cn1 [Compound I-30, 1-ethyl-3-(5-(6-((4-(methylsulfonyl)piperazin-1-yl)methyl)-4-morpholinopyrrolo[2,1-f][1,2,4]triazin-2-yl)-4-(trifluoromethyl)pyridin-2-yl)urea]",32 nM,2510 nM,890 nM,660 nM,46 nM,601 nM,9700 nM,493 nM,2000 nM,1550 nM,3200 nM,256 nM,IC50 (PI3Kα): 8.19 nM; IC50 [1]: 820 nM
"CS(=O)(=O)N1CCN(Cc2cc3nc(-c4cccc5[nH]ncc45)nc(N4CCOCC4)c3s2)CC1 [GDC0941, reference compound]",256 nM,519 nM,1200 nM,1660 nM,316 nM,636 nM,8100 nM,517 nM,2200 nM,1670 nM,3200 nM,478 nM,Relative tumor proliferation rate T/C ([8]; d0): 100.00%; Relative tumor proliferation rate T/C ([8]; d3): 75.12%; Relative tumor proliferation rate T/C ([8]; d7): 79.34%; Relative tumor proliferation rate T/C ([8]; d10): 74.75%; Relative tumor proliferation rate T/C ([8]; d14): 56.86%; Relative tumor proliferation rate T/C ([8]; d17): 53.57%; Relative tumor proliferation rate T/C ([8]; d21): 51.40%
